Test [1] relates to Pneumocystis carinii. In words: Ratio of inhibitory concentration of rat liver and Pneumocystis carinii DHFR.
The target of test [2] is T1, Bifunctional dihydrofolate reductase-thymidylate synthase (Toxoplasma gondii, UniProt Q07422).
T1 sequence (Q07422 whole entry): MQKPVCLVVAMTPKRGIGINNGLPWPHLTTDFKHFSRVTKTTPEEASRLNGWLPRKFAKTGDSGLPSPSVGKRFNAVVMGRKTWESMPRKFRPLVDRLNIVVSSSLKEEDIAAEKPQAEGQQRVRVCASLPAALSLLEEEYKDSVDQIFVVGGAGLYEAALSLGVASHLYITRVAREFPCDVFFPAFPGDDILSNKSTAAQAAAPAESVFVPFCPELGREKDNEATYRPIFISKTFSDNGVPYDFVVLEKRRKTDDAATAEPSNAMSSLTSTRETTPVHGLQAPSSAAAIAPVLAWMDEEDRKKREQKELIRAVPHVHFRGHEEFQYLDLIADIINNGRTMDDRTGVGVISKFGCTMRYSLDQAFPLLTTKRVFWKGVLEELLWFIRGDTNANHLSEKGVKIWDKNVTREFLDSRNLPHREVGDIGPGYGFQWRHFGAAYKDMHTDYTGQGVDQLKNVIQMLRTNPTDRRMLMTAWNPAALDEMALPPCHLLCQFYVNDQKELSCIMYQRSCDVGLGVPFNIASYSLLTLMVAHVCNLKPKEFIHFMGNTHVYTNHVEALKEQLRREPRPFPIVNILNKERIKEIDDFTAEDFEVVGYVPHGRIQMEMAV
Description: Inhibitory activity against Toxoplasma gondii dihydrofolate reductase.

The target in test [3] is T2, Dihydrofolate reductase (Rattus norvegicus, UniProt Q920D2).
T2 sequence (Q920D2 whole entry): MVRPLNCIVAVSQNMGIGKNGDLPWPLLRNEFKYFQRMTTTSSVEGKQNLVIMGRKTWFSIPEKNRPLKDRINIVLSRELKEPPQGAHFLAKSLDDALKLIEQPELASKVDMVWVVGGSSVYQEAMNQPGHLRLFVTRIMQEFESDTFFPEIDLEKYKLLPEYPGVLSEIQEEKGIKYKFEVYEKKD
Description: Inhibitory activity against rat liver dihydrofolate reductase.

Test [4] in a line: pRatio of inhibitory concentration of Rat liver and Pneumocystis carinii DHFR.
Test [5] in a line: Ratio of inhibitory concentration of Rat liver and Pneumocystis carinii DHFR.
Test [6] in a line: Ratio of inhibitory concentration of Rat liver and Toxoplasma gondii DHFR.

Regarding `COc1ccc(N(C)Cc2ccc3nc(N)nc(N)c3n2)c(OC)c1`, the Selectivity in test [1] came to 0.1. In addition, the IC50 was 14 nM in test [2] and 16 nM in test [3].
On to `CN(Cc1ccc2nc(N)nc(N)c2n1)c1ccc(C(=O)C(F)(F)F)cc1`, for which the Selectivity in test [1] was determined as 0.13. For the same compound, the IC50 in test [2] amounted to 46 nM; in test [3], 32 nM.
For `Nc1nc(N)c2nc(CNc3ccc(Cl)cc3Cl)ccc2n1`, the Selectivity in test [1] was 0.12. Also, the IC50 is 50 nM in test [2] and 88 nM in test [3].
For `COc1cccc(N(C)Cc2ccc3nc(N)nc(N)c3n2)c1`, the Selectivity in test [1] was determined as 0.36. The IC50 in test [2] was determined as 15 nM; in test [3], 35 nM.
In the case of `CN(Cc1ccc2nc(N)nc(N)c2n1)c1cccc(Cl)c1`, the Selectivity in test [1] was 0.032.
As to `CN(Cc1ccc2nc(N)nc(N)c2n1)c1c(Cl)cc(Cl)cc1Cl`, the Selectivity in test [1] came to 0.43. Moreover, the IC50 in test [2] stood at 44 nM; in test [3], 52 nM.
For the compound `Nc1nc(N)c2nc(CNc3c(Cl)cc(Cl)cc3Cl)ccc2n1`, the Selectivity in test [1] came to 0.29. Moreover, the IC50 was found to be 46 nM in test [2] and 570 nM in test [3].
The matching figures for `COc1ccc(NCc2ccc3nc(N)nc(N)c3n2)cc1OC`: 0.07, 90 nM and 60 nM.
Consider `Nc1nc(N)c2nc(CSc3ccc4ccccc4c3)ccc2n1`, for which, in test [1], the Selectivity is 0.23. The IC50 in test [2] came to 48 nM; in test [3] it was 86 nM.
`CN(Cc1ccc2nc(N)nc(N)c2n1)c1cc(Cl)c(Cl)c(Cl)c1`: the Selectivity in test [1] came to 0.35. Also, the results for the IC50 in test [2] and in test [3] were 38 nM and 87 nM, respectively.
Take `Nc1nc(N)c2nc(CSc3cccc4ccccc34)ccc2n1`: the Selectivity in test [1] amounted to 0.34. For the same compound, the IC50 is 49 nM in test [2] and 160 nM in test [3].
The matching figures for `Nc1nc(N)c2nc(CNc3cc(Cl)c(Cl)c(Cl)c3)ccc2n1`: 0.07, 87 nM and 44 nM.
The matching figures for `COc1ccccc1NCc1ccc2nc(N)nc(N)c2n1`: 0.16, 120 nM and 420 nM.
On to `COc1cc(NCc2ccc3nc(N)nc(N)c3n2)cc(OC)c1OC`, for which the Selectivity in test [1] came to 0.1. Further, the IC50 in test [2] was 40 nM; in test [3], 200 nM.
In test [4], `Nc1nc(N)c2nc(CNc3c(Cl)cccc3Cl)ccc2n1` showed a Selectivity of 0.082. The IC50 was 28 nM in test [2] and 82 nM in test [3].
Consider `Nc1nc(N)c2nc(CNc3cc(Cl)ccc3Cl)ccc2n1`, for which the Selectivity in test [1] is 0.13. Moreover, the 50% inhibitory concentration (IC50) in test [2] was 91 nM; in test [3], 200 nM.
The matching figures for `C#CCN(Cc1ccc2nc(N)nc(N)c2n1)c1ccc(C(C)=O)cc1`: 0.07, 20 nM and 15 nM.
The matching figures for `CN(Cc1ccc2nc(N)nc(N)c2n1)c1ccc(Cl)cc1Cl`: 0.12, 50 nM and 58 nM.
Consider `Nc1nc(N)c2nc(CNc3ccccc3Cl)ccc2n1`, for which the Selectivity in test [1] stood at 0.26. Also, the IC50 stood at 110 nM in test [2] and 140 nM in test [3].
`COc1cccc(NCc2ccc3nc(N)nc(N)c3n2)c1`: in test [1], the Selectivity was found to be 0.12. In addition, the IC50 in test [2] was found to be 100 nM; in test [3], 200 nM.
Regarding `CN(Cc1ccc2nc(N)nc(N)c2n1)c1cc(Cl)ccc1Cl`, the Selectivity in test [1] came out at 0.31. Further, the IC50 in test [2] is 25 nM; in test [3] it was 47 nM.
In the case of `COc1cc(N(C)Cc2ccc3nc(N)nc(N)c3n2)cc(OC)c1OC`, the Selectivity in test [1] turned out to be 0.2.
As for `COc1ccc(OC)c(NCc2ccc3nc(N)nc(N)c3n2)c1`, the Selectivity in test [1] was determined as 0.06. For the same compound, the IC50 in test [2] turned out to be 120 nM; in test [3], 280 nM.
On to `Nc1nc(N)c2nc(CNc3cccc4ccccc34)ccc2n1`, for which the Selectivity in test [5] was determined as 0.17; in test [6] it was 1.54. The IC50 worked out at 26 nM in test [2] and 40 nM in test [3].
`Nc1nc(N)c2nc(CNc3cccc(Cl)c3)ccc2n1`: the Selectivity in test [1] amounted to 0.07. Also, the half-inhibitory concentration (IC50) was 130 nM in test [2] and 140 nM in test [3].
With `CN(Cc1ccc2nc(N)nc(N)c2n1)c1c(Cl)cccc1Cl`, in test [1], the Selectivity is 0.28. The IC50 in test [2] was found to be 30 nM; in test [3], 48 nM.
The matching figures for `CC(=O)c1ccc(N(C)Cc2ccc3nc(N)nc(N)c3n2)cc1`: 0.04, 15 nM and 5.1 nM.
For the compound `Nc1nc(N)c2nc(CSc3ccccc3)cnc2n1`, the Selectivity in test [1] was 25.9. Moreover, the IC50 is 770 nM in test [2] and 246000 nM in test [3].
For `CN(Cc1ccc2nc(N)nc(N)c2n1)c1cccc2ccccc12`, in test [1], the Selectivity is 0.18. Besides, the IC50 came out at 18 nM in test [2] and 7.3 nM in test [3].
For `COc1ccc(SCc2cnc3nc(N)nc(N)c3c2C)cc1`, the Selectivity in test [1] is 0.93. Moreover, the half-maximal inhibitory concentration (IC50) in test [2] is 63 nM; in test [3] it was 520 nM.
In the case of `COc1ccc(NCc2ccc3nc(N)nc(N)c3n2)c(OC)c1`, in test [1], the Selectivity is 0.06. Moreover, the IC50 in test [2] was determined as 140 nM; in test [3] it was 320 nM.
The matching figures for `CN(Cc1ccc2nc(N)nc(N)c2n1)c1ccccc1Cl`: 0.57, 15 nM and 120 nM.
In the case of `Nc1nc(N)c2nc(CSc3ccccc3)ccc2n1`, in test [1], the Selectivity amounted to 0.26. For the same compound, the IC50 in test [2] amounted to 130 nM; in test [3] it was 520 nM.
The matching figures for `CN(Cc1ccc2nc(N)nc(N)c2n1)c1ccc(Cl)c(Cl)c1`: 0.45, 27 nM and 17 nM.
`Nc1nc(N)c2nc(CNc3ccccc3)ccc2n1`: the Selectivity in test [1] stood at 0.15. Moreover, the results for the IC50 in test [2] and in test [3] were 85 nM and 260 nM, respectively.
With `Nc1nc(N)c2nc(CNc3ccc(Cl)c(Cl)c3)ccc2n1`, the Selectivity in test [1] was 0.13. The IC50 in test [2] worked out at 57 nM; in test [3], 54 nM.
As for `COc1ccccc1N(C)Cc1ccc2nc(N)nc(N)c2n1`, the Selectivity in test [1] worked out at 0.24. The IC50 in test [2] is 26 nM; in test [3], 120 nM.
The matching figures for `COc1ccc(N(C)Cc2ccc3nc(N)nc(N)c3n2)cc1OC`: 0.02, 9.8 nM and 2.7 nM.
For the compound `C#CCN(Cc1ccc2nc(N)nc(N)c2n1)c1ccc(C(=O)C(F)(F)F)cc1`, the Selectivity in test [1] is 0.06. For the same compound, the IC50 in test [2] was determined as 54 nM; in test [3], 7.5 nM.
Turning to `CC(=O)c1ccc(NCc2ccc3nc(N)nc(N)c3n2)cc1`, in test [1], the Selectivity is 0.01. Besides, the IC50 in test [2] came out at 27 nM; in test [3] it was 2.5 nM.
The matching figures for `CN(Cc1ccc2nc(N)nc(N)c2n1)c1ccccc1`: 0.08, 8.4 nM and 24 nM.
As to `COc1ccc(NCc2ccc3nc(N)nc(N)c3n2)cc1`, the Selectivity in test [1] was found to be 0.09. In addition, the IC50 in test [2] turned out to be 54 nM; in test [3] it was 73 nM.
In the case of `CN(Cc1ccc2nc(N)nc(N)c2n1)c1ccc2ccccc2c1`, the Selectivity in test [1] came to 0.14. Further, the IC50 was determined as 16 nM in test [2] and 7.2 nM in test [3].
The matching figures for `COc1ccc(N(C)Cc2ccc3nc(N)nc(N)c3n2)cc1`: 0.072, 16 nM and 18 nM.
As to `Nc1nc(N)c2nc(CNc3ccc4ccccc4c3)ccc2n1`, the Selectivity in test [5] amounted to 0.13; in test [6], 1.31. For the same compound, the IC50 in test [2] amounted to 160 nM; in test [3], 210 nM.
With `COc1ccc(OC)c(N(C)Cc2ccc3nc(N)nc(N)c3n2)c1`, the Selectivity in test [1] amounted to 0.24. Besides, the IC50 in test [2] was determined as 25 nM; in test [3], 50 nM.
